Reference: patent US9957254B2, “Cyclohexen-1-yl-pyridin-2-yl-1h-pyrazole-4-carboxylic acid derivatives and the use thereof as soluble guanylate cyclase activators” (Novartis AG, priority 2014, dated 2018)

Target: T1, soluble guanylate cyclase (Homo sapiens, UniProt Q02153)
T1 construct: expressed in transfected cells
Test: CHO cellular assay (cGMP production, Cisbio cGMP HTRF)
Type: cell-based
Conditions: CHO K1 cells overexpressing human GUCYA3/GUCYB3 (clone 8E10), 1 mM IBMX, 20 uM ODQ, 1 h room temperature, listed 0.5 nM means actual EC50 ≤0.5 nM (quantification limit)
Description: Chinese hamster ovary (CHO) cells overexpressing soluble guanylate cyclase were generated to test the effect of sGC activators in a cellular context. Human cDNAs for GUCYA3 (RefSeq: NM_000856.3) and GUCYB3 (RefSeq: NM_000857.1) were amplified by PCR from a HUVEC (Human Umbilical Vein Endothelial Cells) cDNA library and cloned into mammalian expression vectors. CHO K1 cells (ATCC CCL-61) were transfected using Lipofectamine 2000 following manufacturer's instructions and stably expressing clones were identified by antibiotic selection. CHO GUCY clone 8E10 was used for subsequent experiments.
Cells were seeded at a density of 3000 cells/well in white 384-well proxyplates (Perkin Elmer) and incubated overnight, then the medium was removed and cells were washed with assay buffer (HBSS, 0.1% BSA, 1 mM IBMX, 20 uM ODQ). sGC activators were serially diluted in DMSO, then diluted in assay buffer prior to adding to cells (10 ul/well, final DMSO concentration 0.5%). Cells were incubated with compounds for 1 h room temperature, then assayed for cGMP production using Cisbio cGMP HTRF kit (62GM2PEC) according to manufacturer's instructions.
The EC50s are calculated based on the amount of cGMP interpolated from the standard curve, using a 4-parameter sigmoidal dose-response.
Compounds of invention are active on sGC activation. Data on Table 1 collected using the assay of Biological Example 1. The minimum EC50 quantification limit of the assay is 0.5 nM, therefore any compound listed as having an EC50 value of 0.5 nM has a actual EC50 of ≤0.5 nM.

T1 sequence (Q02108 whole entry partner): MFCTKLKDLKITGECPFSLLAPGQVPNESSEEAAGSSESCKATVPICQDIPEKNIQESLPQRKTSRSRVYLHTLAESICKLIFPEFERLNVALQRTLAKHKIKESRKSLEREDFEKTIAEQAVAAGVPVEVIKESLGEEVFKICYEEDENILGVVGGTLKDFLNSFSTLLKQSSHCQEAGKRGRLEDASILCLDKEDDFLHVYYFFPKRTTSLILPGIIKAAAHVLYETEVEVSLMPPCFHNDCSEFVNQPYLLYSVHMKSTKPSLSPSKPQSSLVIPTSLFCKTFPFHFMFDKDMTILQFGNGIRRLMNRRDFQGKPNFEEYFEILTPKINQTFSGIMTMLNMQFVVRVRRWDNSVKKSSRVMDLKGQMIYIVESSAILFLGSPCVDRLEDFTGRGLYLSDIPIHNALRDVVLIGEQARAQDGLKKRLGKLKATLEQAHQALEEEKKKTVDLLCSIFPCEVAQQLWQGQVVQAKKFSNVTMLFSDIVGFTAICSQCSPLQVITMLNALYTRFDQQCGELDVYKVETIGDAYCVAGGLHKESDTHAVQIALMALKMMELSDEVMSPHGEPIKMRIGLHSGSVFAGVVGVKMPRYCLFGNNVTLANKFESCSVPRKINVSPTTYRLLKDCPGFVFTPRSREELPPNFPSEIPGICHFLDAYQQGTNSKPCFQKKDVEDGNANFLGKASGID
T1 sequence (Q02153 whole entry): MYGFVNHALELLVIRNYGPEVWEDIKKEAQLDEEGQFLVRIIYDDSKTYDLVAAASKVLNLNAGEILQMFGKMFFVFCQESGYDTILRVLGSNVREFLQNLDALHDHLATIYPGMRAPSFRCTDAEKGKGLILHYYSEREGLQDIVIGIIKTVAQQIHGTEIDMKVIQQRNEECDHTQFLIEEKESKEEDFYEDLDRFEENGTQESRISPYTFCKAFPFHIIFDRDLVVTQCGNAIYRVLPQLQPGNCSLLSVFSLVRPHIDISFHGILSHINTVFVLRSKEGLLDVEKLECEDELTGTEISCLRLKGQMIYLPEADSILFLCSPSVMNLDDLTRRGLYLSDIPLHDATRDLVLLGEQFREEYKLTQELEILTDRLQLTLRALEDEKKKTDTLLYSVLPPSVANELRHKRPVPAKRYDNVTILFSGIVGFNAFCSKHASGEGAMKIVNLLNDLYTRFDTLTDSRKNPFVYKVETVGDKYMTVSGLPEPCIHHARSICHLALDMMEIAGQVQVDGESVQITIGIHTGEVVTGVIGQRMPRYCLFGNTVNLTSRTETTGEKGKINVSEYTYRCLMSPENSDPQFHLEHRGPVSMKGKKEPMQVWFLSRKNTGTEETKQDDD

EC50 [nM]	Compound
2	CCc1cc(OCC2=C(c3cccc(-n4ncc(C(=O)O)c4C(F)F)n3)CCCC2C)ccc1C1CCN(C(=O)C2CC2)CC1 (single isomer, unassigned; (-)) [Example 20b (−), (−)-1-(6-(2-((4-(1-(cyclopropanecarbonyl)piperidin-4-yl)-3-ethylphenoxy)methyl)-3-methylcyclohex-1-en-1-yl)pyridin-2-yl)-5-(difluoromethyl)-1H-pyrazole-4-carboxylic acid]
1	Cc1cc(C2CCN(C(=O)N(C)C)CC2)ccc1OCC1=C(c2cccc(-n3ncc(C(=O)O)c3C(F)(F)F)n2)CCCC1 [Example 2-4, 1-(6-(2-((4-(1-(dimethylcarbamoyl)piperidin-4-yl)-2-methylphenoxy)methyl)cyclohex-1-en-1-yl)pyridin-2-yl)-5-(trifluoromethyl)-1H-pyrazole-4-carboxylic acid]
9	CCc1cc(OCC2=C(c3cccc(-n4ncc(C(=O)O)c4C(F)(F)F)n3)CCCC2C)ccc1C1CCN(C(=O)C2CC2)CC1 (single isomer, unassigned; (-)) [Example 13b, (−)-1-(6-(2-((4-(1-(Cyclopropanecarbonyl)piperidin-4-yl)-3-ethylphenoxy)methyl)-3-methylcyclohex-1-en-1-yl)pyridin-2-yl)-5-(trifluoromethyl)-1H-pyrazole-4-carboxylic acid]
≤ 0.5	CCc1cc(NCC2=C(c3cccc(-n4ncc(C(=O)O)c4C(F)(F)F)n3)CCCC2)ccc1C1CCN(C(=O)C2CC2)CC1 [Example 26, 1-(6-(2-(((4-(1-(Cyclopropanecarbonyl)piperidin-4-yl)-3-ethylphenyl)amino)methyl)cyclohex-1-en-1-yl)pyridin-2-yl)-5-(trifluoromethyl)-1H-pyrazole-4-carboxylic acid]
14	CCNC(=O)N1CCC(c2ccc(OCC3=C(c4cccc(-n5ncc(C(=O)O)c5C(F)(F)F)n4)CCCC3)c(C)c2)CC1 [Example 2-12, 1-(6-(2-((4-(1-(ethylcarbamoyl)piperidin-4-yl)-2-methylphenoxy)methyl)cyclohex-1-en-1-yl)pyridin-2-yl)-5-(trifluoromethyl)-1H-pyrazole-4-carboxylic acid]
8	CCc1cc(OCC2=C(c3cccc(-n4ncc(C(=O)O)c4C)n3)CCCC2C)ccc1C1CCN(C(=O)[C@H](C)O)CC1 (single isomer, unassigned; diastereomer-2) [Example 19b]
16	O=C(O)c1cnn(-c2cccc(C3=C(COc4ccc5c(c4)CCN(Cc4ccc6ccccc6n4)C5)CCCC3)n2)c1C(F)(F)F [Example 6-2, 1-(6-(2-(((2-(quinolin-2-ylmethyl)-1,2,3,4-tetrahydroisoquinolin-6-yl)oxy)methyl)cyclohex-1-en-1-yl)pyridin-2-yl)-5-(trifluoromethyl)-1H-pyrazole-4-carboxylic acid]
≤ 0.5	Cc1cc(C2CCN(C(=O)C3CC3)CC2)ccc1OCC1=C(c2cccc(-n3ncc(C(=O)O)c3C(F)(F)F)n2)CCCC1C (single isomer, unassigned; (+)) [Example 15a, (+)-1-(6-(2-((4-(1-(cyclopropanecarbonyl)piperidin-4-yl)-2-methylphenoxy)methyl)-3-methylcyclohex-1-en-1-yl)pyridin-2-yl)-5-(trifluoromethyl)-1H-pyrazole-4-carboxylic acid]
5	Cc1cc(C2CCN(CC(F)(F)F)CC2)ccc1OCC1=C(c2cccc(-n3ncc(C(=O)O)c3C(F)(F)F)n2)CCC1 [Example 25, 1-(6-(2-((2-Methyl-4-(1-(2,2,2-trifluoroethyl)piperidin-4-yl)phenoxy)methyl)cyclopent-1-en-1-yl)pyridin-2-yl)-5-(trifluoromethyl)-1H-pyrazole-4-carboxylic acid]
5	O=C(O)c1cnn(-c2cccc(C3=C(CNc4ccc(C5CCN(C(=O)C6CC6)CC5)cc4)CCCC3)n2)c1C(F)(F)F [Example 27-2, 1-(6-(2-(((4-(1-(Cyclopropanecarbonyl)piperidin-4-yl)phenyl)amino)methyl)cyclohex-1-en-1-yl)pyridin-2-yl)-5-(trifluoromethyl)-1H-pyrazole-4-carboxylic acid]
22	COC(=O)N1CCC(c2ccc(OCC3=C(c4cccc(-n5ncc(C(=O)O)c5C(F)(F)F)n4)CCC3)c(C)c2)CC1 [Example 24-3, 1-(6-(2-((4-(1-(Methoxycarbonyl)piperidin-4-yl)-2-methylphenoxy)methyl)cyclopent-1-en-1-yl)pyridin-2-yl)-5-(trifluoromethyl)-1H-pyrazole-4-carboxylic acid]
1	Cc1cc(C2CCN(C(=O)C3CC3)CC2)ccc1OCC1=C(c2cccc(-n3ncc(C(=O)O)c3C(F)(F)F)c2)CCCC1 [Example 10, 1-(6′-((4-(1-(Cyclopropanecarbonyl)piperidin-4-yl)-2-methylphenoxy)methyl)-2′,3′,4′,5′-tetrahydro-[1,1-biphenyl]-3-yl)-5-(trifluoromethyl)-1H-pyrazole-4-carboxylic acid]
8.9	CCc1cc(OCC2=C(c3cccc(-n4ncc(C(=O)O)c4CC)n3)CCCC2C)ccc1C1CCN(C(=O)[C@H](C)O)CC1 (single isomer, unassigned; diastereomer-2) [Example 18b]
≤ 0.5	CCc1cc(OCC2=C(c3cccc(-n4ncc(C(=O)O)c4CC)n3)CCCC2C)ccc1C1CCN(C(=O)[C@H](C)O)CC1 (single isomer, unassigned; diastereomer-1) [Example 18a]
2	CCN(CC)C(=O)N1CCC(c2ccc(OCC3=C(c4cccc(-n5ncc(C(=O)O)c5C(F)(F)F)n4)CCCC3)c(C)c2)CC1 [Example 2-7, 1-(6-(2-((4-(1-(diethylcarbamoyl)piperidin-4-yl)-2-methylphenoxy)methyl)cyclohex-1-en-1-yl)pyridin-2-yl)-5-(trifluoromethyl)-1H-pyrazole-4-carboxylic acid]
1	CCc1cc(OCC2=C(c3cccc(-n4ncc(C(=O)O)c4C(F)(F)F)n3)CCCC2(C)C)ccc1C1CCN(C(=O)C2CC2)CC1 [Example 14, 1-(6-(2-((4-(1-(Cyclopropanecarbonyl)piperidin-4-yl)-3-ethylphenoxy)methyl)-3,3-dimethylcyclohex-1-en-1-yl)pyridin-2-yl)-5-(trifluoromethyl)-1H-pyrazole-4-carboxylic acid]
3.5	Cc1cc(C2CCN(C(=O)N(C)C)CC2)ccc1OCC1=C(c2cccc(-n3ncc(C(=O)O)c3C(F)(F)F)n2)CCC1 [Example 23, 1-(6-(2-((4-(1-(Dimethylcarbamoyl)piperidin-4-yl)-2-methylphenoxy)methyl)cyclopent-1-en-1-yl)pyridin-2-yl)-5-(trifluoromethyl)-1H-pyrazole-4-carboxylic acid]
8.4	Cc1cc(C2CCN(C(=O)c3ccccn3)CC2)ccc1OCC1=C(c2cccc(-n3ncc(C(=O)O)c3C(F)(F)F)n2)CCCC1 [Example 4-2, 1-(6-(2-((2-methyl-4-(1-picolinoylpiperidin-4-yl)phenoxy)methyl)cyclohex-1-en-1-yl)pyridin-2-yl)-5-(trifluoromethyl)-1H-pyrazole-4-carboxylic acid]
≤ 0.5	Cc1cc(C2CCN(C(=O)C3CC3)CC2)ccc1OCC1=C(c2cccc(-n3ncc(C(=O)O)c3C(F)(F)F)n2)CCCC1 [Example 1, 1-(6-(2-((4-(1-(Cyclopropanecarbonyl)piperidin-4-yl)-2-methylphenoxy)methyl)cyclohex-1-en-1-yl)pyridin-2-yl)-5-(trifluoromethyl)-1H-pyrazole-4-carboxylic acid]

Compound	EC50 [nM]
Cc1cc(C2CCN(C(=O)OC(C)(C)C)CC2)ccc1OCC1=C(c2cccc(-n3ncc(C(=O)O)c3C(F)(F)F)n2)CCCC1 [Example 2-13, 1-(6-(2-((4-(1-(tert-butoxycarbonyl)piperidin-4-yl)-2-methylphenoxy)methyl)cyclohex-1-en-1-yl)pyridin-2-yl)-5-(trifluoromethyl)-1H-pyrazole-4-carboxylic acid]	110
